Source: article PMC8595762 (Plant Direct, 2021)

What was measured:
ABCB4 = molecular target: T1, ABCB4 (Arabidopsis thaliana, UniProt O80725); test: whole-cell patch clamp, current magnitude; type: cell-based; settings: activation; IAA in pipette (cytoplasmic side); 50 mM CsCl
T1 sequence (O80725 1-1286): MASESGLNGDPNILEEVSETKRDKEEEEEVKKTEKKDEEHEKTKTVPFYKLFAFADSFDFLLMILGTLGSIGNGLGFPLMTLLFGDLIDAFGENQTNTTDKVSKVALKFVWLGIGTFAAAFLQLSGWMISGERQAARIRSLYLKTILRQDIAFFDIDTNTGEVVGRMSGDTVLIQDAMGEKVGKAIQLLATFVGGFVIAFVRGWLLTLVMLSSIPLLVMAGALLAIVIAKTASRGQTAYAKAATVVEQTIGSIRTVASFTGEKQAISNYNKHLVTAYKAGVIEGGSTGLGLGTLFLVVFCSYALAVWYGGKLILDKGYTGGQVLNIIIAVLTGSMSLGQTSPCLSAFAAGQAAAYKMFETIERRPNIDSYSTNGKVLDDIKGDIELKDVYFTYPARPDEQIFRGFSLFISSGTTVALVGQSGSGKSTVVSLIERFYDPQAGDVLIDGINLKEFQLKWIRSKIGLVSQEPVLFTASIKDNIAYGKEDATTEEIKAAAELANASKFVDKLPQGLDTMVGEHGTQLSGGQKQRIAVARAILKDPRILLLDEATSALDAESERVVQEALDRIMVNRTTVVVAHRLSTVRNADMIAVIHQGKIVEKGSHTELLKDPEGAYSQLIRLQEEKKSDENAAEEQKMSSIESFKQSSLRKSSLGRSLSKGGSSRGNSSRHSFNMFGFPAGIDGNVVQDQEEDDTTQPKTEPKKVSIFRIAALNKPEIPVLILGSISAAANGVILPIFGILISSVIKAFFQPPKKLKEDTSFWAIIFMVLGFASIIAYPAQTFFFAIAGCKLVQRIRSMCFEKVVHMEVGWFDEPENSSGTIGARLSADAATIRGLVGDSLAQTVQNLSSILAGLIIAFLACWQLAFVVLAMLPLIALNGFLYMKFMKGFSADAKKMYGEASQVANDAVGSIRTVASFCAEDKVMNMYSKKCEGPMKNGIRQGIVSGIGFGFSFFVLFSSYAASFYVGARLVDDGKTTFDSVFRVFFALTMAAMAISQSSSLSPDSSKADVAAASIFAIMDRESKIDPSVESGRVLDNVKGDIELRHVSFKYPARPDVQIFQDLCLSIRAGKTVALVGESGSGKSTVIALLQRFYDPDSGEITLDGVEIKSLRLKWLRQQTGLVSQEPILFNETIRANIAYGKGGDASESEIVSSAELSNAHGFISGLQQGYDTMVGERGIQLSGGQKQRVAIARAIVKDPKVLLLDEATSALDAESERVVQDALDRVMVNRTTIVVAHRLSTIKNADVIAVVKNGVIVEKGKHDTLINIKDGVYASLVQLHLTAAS

PIN2 = molecular target: T2, PIN2 (Arabidopsis thaliana, UniProt Q9LU77); test: whole-cell patch clamp, block of currents; type: cell-based; settings: inhibition; NPPB in bath; auxin-stimulated conditions; 50 mM CsCl
T2 sequence (Q9LU77 1-647): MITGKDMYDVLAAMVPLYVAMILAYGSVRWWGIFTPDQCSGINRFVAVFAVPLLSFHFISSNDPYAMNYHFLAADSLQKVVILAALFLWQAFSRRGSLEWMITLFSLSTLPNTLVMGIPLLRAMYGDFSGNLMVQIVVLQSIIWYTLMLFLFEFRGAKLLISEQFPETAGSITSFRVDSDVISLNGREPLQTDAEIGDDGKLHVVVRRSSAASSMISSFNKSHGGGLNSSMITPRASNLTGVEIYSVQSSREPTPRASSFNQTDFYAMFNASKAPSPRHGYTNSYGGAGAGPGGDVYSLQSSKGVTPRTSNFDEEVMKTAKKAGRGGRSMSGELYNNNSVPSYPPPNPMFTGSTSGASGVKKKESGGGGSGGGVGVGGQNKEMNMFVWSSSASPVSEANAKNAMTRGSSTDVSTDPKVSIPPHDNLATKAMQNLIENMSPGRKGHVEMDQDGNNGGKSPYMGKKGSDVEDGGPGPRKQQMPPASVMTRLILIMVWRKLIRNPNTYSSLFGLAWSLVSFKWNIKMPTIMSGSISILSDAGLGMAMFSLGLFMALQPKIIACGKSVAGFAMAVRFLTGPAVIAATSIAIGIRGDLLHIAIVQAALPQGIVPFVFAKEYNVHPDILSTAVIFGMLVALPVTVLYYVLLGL

| % increase in currents, 0.1 to 1 μM IAA (ABCB4) | SMILES | block at 20 μM (PIN2) |
| --- | --- | --- |
| ~ 30% | O=C(O)Cc1c[nH]c2ccccc12 [IAA^−] |  |
|  | O=C(O)c1cc([N+](=O)[O-])ccc1NCCCc1ccccc1 [NPPB, 5‐nitro‐2‐(3‐phenylpropylamine)‐benzoic acid] | NPPB but not NPA was an effective inhibitor |
